# Assay results reported in patent publication US9181218B2, “Compounds for improved stem cell differentiation into hepatocytes” (Hoffmann-La Roche Inc., priority 2013, dated 2015).
# System: interferon-stimulated genes (ISGs)
# Assay: Microarray analysis of iCell Hepatocytes treated with the compound of example 1
# Type: cell-based, Human
# Excerpt: iCell Hepatocytes treated with the compound of example 1 results in the up and down-regulation of a host of genes; including a kinetic effect on interferon-stimulated gene (ISGs) expression. See FIGS. 15-I and 15-II, 16-I and 16-II and 18 and Table 1.
smiles,measurement,setting,value
"O=C(NCc1cccc(F)c1)c1cccc2nc(-c3c(NC[C@@H](O)c4ccccc4)cc[nH]c3=O)[nH]c12 [Example 1, 2-[4-((S)-2-hydroxy-2-phenyl-ethylamino)-2-oxo-1,2-dihydro-pyridin-3-yl]-3H-benzoimidazole-4-carboxylic acid 3-fluoro-benzylamide]",ADAM19 Raw Est Fold Change,2 HOUR,2.77
same,AES Raw Est Fold Change,2 HOUR,2.07
same,AKT3 Raw Est Fold Change,2 HOUR,−1.76
same,ASNS Raw Est Fold Change,2 HOUR,1.80
same,BCL3 Raw Est Fold Change,2 HOUR,−1.44
same,BUB1 Raw Est Fold Change,2 HOUR,−20.72
same,C10orf10 Raw Est Fold Change,2 HOUR,−3.72
same,CD80 Raw Est Fold Change,2 HOUR,−13.65
same,CD300LF Raw Est Fold Change,2 HOUR,5.42
same,CEBPD Raw Est Fold Change,2 HOUR,−1.29
same,CSNK1D Raw Est Fold Change,2 HOUR,1.10
same,DDIT4 Raw Est Fold Change,2 HOUR,2.67
same,DRAP1 Raw Est Fold Change,2 HOUR,1.17
same,EFNB2 Raw Est Fold Change,2 HOUR,−1.63
same,EHHADH Raw Est Fold Change,2 HOUR,−1.16
same,EPAS1 Raw Est Fold Change,2 HOUR,−2.61
same,ETV7 Raw Est Fold Change,2 HOUR,−2.54
same,FGF2 Raw Est Fold Change,2 HOUR,−1.76
same,GOLGA3 Raw Est Fold Change,2 HOUR,1.45
same,GTPBP2 Raw Est Fold Change,2 HOUR,−1.29
same,HLA-C Raw Est Fold Change,2 HOUR,−4.87
same,ISGF3G Raw Est Fold Change,2 HOUR,−1.17
same,JAK1 Raw Est Fold Change,2 HOUR,−5.55
same,JUNB Raw Est Fold Change,2 HOUR,−6.01
same,KAL1 Raw Est Fold Change,2 HOUR,−2.61
same,KPNB1 Raw Est Fold Change,2 HOUR,1.14
same,MAX Raw Est Fold Change,2 HOUR,3.74
same,MPO Raw Est Fold Change,2 HOUR,−3.18
same,PCMT1 Raw Est Fold Change,2 HOUR,−1.10
same,PHF11 Raw Est Fold Change,2 HOUR,−1.80
same,PHF15 Raw Est Fold Change,2 HOUR,1.74
same,PI4K2B Raw Est Fold Change,2 HOUR,−1.08
same,PIM3 Raw Est Fold Change,2 HOUR,−1.19
same,PXK Raw Est Fold Change,2 HOUR,1.17
same,RHOH Raw Est Fold Change,2 HOUR,−14.71
same,SCARB2 Raw Est Fold Change,2 HOUR,1.50
same,SOCS1 Raw Est Fold Change,2 HOUR,−4.13
same,SOCS3 Raw Est Fold Change,2 HOUR,−9.95
same,TXNIP Raw Est Fold Change,2 HOUR,−2.04
same,ABHD5 Raw Est Fold Change,24 HOUR,−1.43
same,ADM Raw Est Fold Change,24 HOUR,−1.81
same,AKAP12 Raw Est Fold Change,24 HOUR,3.33
same,ALCAM Raw Est Fold Change,24 HOUR,−1.24
same,AMPH Raw Est Fold Change,24 HOUR,−3.29
same,ARHGDIB Raw Est Fold Change,24 HOUR,−1.72
same,ARHGEF3 Raw Est Fold Change,24 HOUR,−1.32
same,ATF3 Raw Est Fold Change,24 HOUR,−3.06
same,AXL Raw Est Fold Change,24 HOUR,−6.82
same,B4GALT5 Raw Est Fold Change,24 HOUR,−1.87
same,BAG1 Raw Est Fold Change,24 HOUR,1.26
same,BCL3 Raw Est Fold Change,24 HOUR,−3.11
same,BHMT Raw Est Fold Change,24 HOUR,5.84
same,BLZF1 Raw Est Fold Change,24 HOUR,−1.26
same,BST2 Raw Est Fold Change,24 HOUR,−1.70
same,BTG1 Raw Est Fold Change,24 HOUR,−1.16
same,BUB1 Raw Est Fold Change,24 HOUR,−33.18
same,C1S Raw Est Fold Change,24 HOUR,−1.62
same,C4orf32 Raw Est Fold Change,24 HOUR,−7.20
same,C4orf33 Raw Est Fold Change,24 HOUR,3.95
same,C10orf10 Raw Est Fold Change,24 HOUR,−2.71
same,CASP4 Raw Est Fold Change,24 HOUR,−5.09
same,CASP5 Raw Est Fold Change,24 HOUR,−3.00
same,CCND3 Raw Est Fold Change,24 HOUR,−1.81
same,CD38 Raw Est Fold Change,24 HOUR,−10.02
same,CD47 Raw Est Fold Change,24 HOUR,−1.52
same,CEBPD Raw Est Fold Change,24 HOUR,−2.58
same,CHD6 Raw Est Fold Change,24 HOUR,1.16
same,CHST12 Raw Est Fold Change,24 HOUR,−1.21
same,CLCN6 Raw Est Fold Change,24 HOUR,−1.26
same,CREB3L3 Raw Est Fold Change,24 HOUR,−3.22
same,CRYM Raw Est Fold Change,24 HOUR,2.03
same,CSDA Raw Est Fold Change,24 HOUR,−2.38
same,CTSL Raw Est Fold Change,24 HOUR,−1.28
same,CX3CL1 Raw Est Fold Change,24 HOUR,2.73
same,CXCL10 Raw Est Fold Change,24 HOUR,1.71
same,CYBA Raw Est Fold Change,24 HOUR,−1.64
same,CYP1B1 Raw Est Fold Change,24 HOUR,−2.71
same,DDX17 Raw Est Fold Change,24 HOUR,−1.56
same,DNAPTP6 Raw Est Fold Change,24 HOUR,1.34
same,DRAP1 Raw Est Fold Change,24 HOUR,1.29
same,EFNB2 Raw Est Fold Change,24 HOUR,−1.46
same,EGR1 Raw Est Fold Change,24 HOUR,−2.86
same,EHHADH Raw Est Fold Change,24 HOUR,1.80
same,EMP1 Raw Est Fold Change,24 HOUR,−5.94
same,EPAS1 Raw Est Fold Change,24 HOUR,−2.84
same,ETS2 Raw Est Fold Change,24 HOUR,−1.73
same,ETV6 Raw Est Fold Change,24 HOUR,−1.37
same,ETV7 Raw Est Fold Change,24 HOUR,−3.88
same,FAM125B Raw Est Fold Change,24 HOUR,−1.54
same,FBXO6 Raw Est Fold Change,24 HOUR,3.00
same,FFAR2 Raw Est Fold Change,24 HOUR,−7.50
same,FKBP1B Raw Est Fold Change,24 HOUR,−1.90
same,FKBP5 Raw Est Fold Change,24 HOUR,−1.39
same,FLT1 Raw Est Fold Change,24 HOUR,−1.75
same,FNDC3B Raw Est Fold Change,24 HOUR,−1.67
same,FNDC4 Raw Est Fold Change,24 HOUR,−1.59
same,FUBP1 Raw Est Fold Change,24 HOUR,−1.50
same,FUT4 Raw Est Fold Change,24 HOUR,−1.89
same,G6PC Raw Est Fold Change,24 HOUR,4.22
same,GALNT2 Raw Est Fold Change,24 HOUR,−5.18
same,GBP2 Raw Est Fold Change,24 HOUR,−1.83
same,GBP4 Raw Est Fold Change,24 HOUR,−3.07
same,GCH1 Raw Est Fold Change,24 HOUR,1.17
same,GK Raw Est Fold Change,24 HOUR,−2.50
same,GLUL Raw Est Fold Change,24 HOUR,1.13
same,GNAI1 Raw Est Fold Change,24 HOUR,1.43
same,GOLGA3 Raw Est Fold Change,24 HOUR,−1.24
same,GTF2F1 Raw Est Fold Change,24 HOUR,1.28
same,GTPBP1 Raw Est Fold Change,24 HOUR,−1.24
same,HEG1 Raw Est Fold Change,24 HOUR,−3.64
same,HIF1A Raw Est Fold Change,24 HOUR,−1.47
same,HK2 Raw Est Fold Change,24 HOUR,−1.88
same,HLA-DPA1 Raw Est Fold Change,24 HOUR,−2.10
same,HLA-DPB1 Raw Est Fold Change,24 HOUR,−2.11
same,ICAM1 Raw Est Fold Change,24 HOUR,−6.60
same,IER3 Raw Est Fold Change,24 HOUR,−2.60
same,IFI16 Raw Est Fold Change,24 HOUR,−6.86
same,IFI27 Raw Est Fold Change,24 HOUR,−1.56
same,IFIT1 Raw Est Fold Change,24 HOUR,3.58
same,IFIT3 Raw Est Fold Change,24 HOUR,1.88
same,IFITM1 Raw Est Fold Change,24 HOUR,−3.11
